Results taken from PMC8876231, “Analogues of Natural Chalcones as Efficient Inhibitors of AKR1C3” (Metabolites, 2022).
Where “and” joins values, the source holds several entries; their conditions need not be identical. Equal values may be shown once. Values belong to the compound of their own block, whether it stands above or below them.

Legend:
[1] = tested on: AKR1C3; conditions: co-crystallised ligand of PDB 3UWE; cited from earlier work
[2] = target: T1, AKR1C3 (Homo sapiens, UniProt P42330); assay: AKR1C3 enzymatic inhibition assay (∆4-androstene-3,17-dione to testosterone); assay type: biochemical; conditions: 10 µM compound, ∆4-androstene-3,17-dione reduction, triplicates, mean ± SD
T1 construct: GST (own knowledge: pGEX vectors encode N-terminal GST); made in house; host or cells: E. coli BL21 DE3 Codon Plus RP, lysate
T1 sequence (P42330 1-323): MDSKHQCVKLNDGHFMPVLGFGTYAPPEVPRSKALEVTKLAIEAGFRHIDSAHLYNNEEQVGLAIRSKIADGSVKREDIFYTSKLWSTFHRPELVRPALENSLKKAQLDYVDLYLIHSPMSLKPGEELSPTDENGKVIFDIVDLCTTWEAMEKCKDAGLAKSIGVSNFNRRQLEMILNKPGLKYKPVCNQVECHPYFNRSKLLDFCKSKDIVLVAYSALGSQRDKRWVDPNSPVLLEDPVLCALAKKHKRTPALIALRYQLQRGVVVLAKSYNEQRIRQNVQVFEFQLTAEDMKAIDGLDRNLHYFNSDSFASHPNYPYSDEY
Description: For enzymatic assays and inhibitor testing, all enzymes were cloned into bacterial or mammalian expression vectors. AKR1C3 and the human hydroxysteroid dehydrogenases HSD17B1, HSD17B2, HSD17B4 (SDR domain), HSD17B7, and HSD17B10 were cloned into a pGEX vector as described in [71, 72]. The coding sequences for AKR1C1, AKR1C2, and AKR1C4 were cloned by Gateway technology into the pcDNA3-N-MycDest vector according to the manufacturer’s instructions (Life Technologies, Carlsbad, CA, USA). The p11 plasmid coding for HSD17B14 (S205 variant) was a gift from Udo Opperman SGC Oxford, UK. For assays with HSD17B3, HEK293 cells stably expressing HSD17B3 were used. Enzymes were expressed in E. coli BL21 DE3 or E. coli BL21 DE3 Codon Plus RP (Stratagene, San Diego, CA, USA) or in HEK293 cells as described in [71, 72, 73]. Bacterial and cell pellets were stored at −20 °C and −80 °C, respectively, until use.
Inhibition assays were carried out as described in [71, 74]. […] For a detailed assay setup, see Supplementary Table S6. The incubation at 37 °C was stopped with 0.21 M ascorbic acid in methanol:acetic acid 99:1 (v:v) after the time needed to convert approximately 30% of the substrate in a control assay with 1% DMSO, without inhibitor candidate. Substrates and products were extracted from the reaction mixture by solid-phase extraction using C18 cartridges (Phenomenex, Aschaffenburg, Germany) and separated by RP–HPLC in a Beckman–Coulter HPLC Gold system, using the Luna 5 µm C18(2), 125 × 4.0 mm column (Phenomenex). The mobile phases used were H2O:ACN (57:43 (v:v); for assays of estrone (E1) to oestradiol (E2), E2 to E1, and ∆4-androstene-3,17-dione to testosterone conversion), H2O:ACN (49:51 (v:v); for assays of progesterone to 20α-hydroxyprogesterone conversion), and H2O:MeOH (35:65 (v:v) for assays of dihydrotestosterone (DHT) to 3α-androstanediol conversion) at a flow rate of 1 mL/min. Radioactivity was detected by online scintillation counting by using a radioactivity monitor (LB506D, Berthold Technologies, Bad Wildbad, Germany). Conversion of substrates to products was determined by integration of the peak area of the substrate and product peaks in percent. For calculation of inhibition, the conversion of control assay (assay without inhibitor) was set to 0% inhibition. All assays were run in triplicates, and mean values ± SD are reported.
For the determination of IC50 values, percent inhibition values were fitted using the Enzyme Kinetics module of SigmaPlot 13.0 and the one-site ligand-binding model according to the formula f = Bmax * abs(x)/(Kd + abs(x)).
Table S6: Activity assay setup […]
E1: estrone; E2: 17β-estradiol, A: Δ4-androstene-3,17-dione; T: testosterone, P: progesterone, 20αOHP: 20α-hydroxyprogesterone, DHT: dihydrotestosterone, 3α-Adiol: 3α-androstanediol, NaPi: 100 mM Na-phosphate buffer; PI: C0mplete protease inhibitor (Roche);. E.coli - Expression in E.coli BL21 DE3 Codon Plus RP except E.coli BL21 DE3 […]
application to antiparasitic and natural product synthesis. Eur J Org Chem […]
Synthesis of Xanthohumol analogues and discovery of potent thioredoxin reductase inhibitor as potential anticancer agent. J Med Chem 2015, 58,

[3] = tested on: DU145; design: method as in PMID 12706007; conditions: human prostate cancer cell line DU145; read-out: IC50 growth inhibition DU145; cited from earlier work
[4] = tested on: LNCaP; design: method as in PMID 12706007; conditions: human prostate cancer cell line LNCaP; read-out: IC50 growth inhibition LNCaP; cited from earlier work
[5] = tested on: 17β-HSD; design: method as in PMID 11205867; conditions: human placental microsomes, compound concentration 10 µM; cited from earlier work
[6] = target: aromatase; design: method as in PMID 11205867; conditions: human placental microsomes; cited from earlier work

SMILES: O=C(O)c1cccc(Oc2ccccc2)c1 [3-phenoxybenzoic acid]
IC50 [1]: 0.68 µM

SMILES: COc1cc(O)cc(O)c1C(=O)/C=C/c1ccc(Cl)cc1 [Compound 28]
AKR1C3 Inhibition at 10 µM [%] ([2]; 10 µM): 20.3% and 26.1 ± 2.0%

SMILES: O=C(/C=C/c1ccc(O)cc1)c1c(O)cc(O)cc1O [Compound 29, naringenin chalcone]
AKR1C3 Inhibition at 10 µM [%] [2]: 40.6 ± 7.7%
17β-HSD inhibition [5]: 2.4%
IC50 [6]: 2.6 µM

SMILES: O=C(/C=C/c1ccc(O)c(O)c1)c1ccc(O)cc1O [Butein (17), butein, reference compound]
inhibition at 10 µM [2]: 37.2 ± 1.4%

SMILES: COc1cc(O)cc(O)c1C(=O)/C=C/c1ccc(O)cc1 [Compound 24]
AKR1C3 Inhibition at 10 µM [%] [2]: 24.6 ± 4.8%

Further lines, with some results ahead:

AKR1C3 Inhibition at 10 µM [%] ([2]; 10 µM): 26.1% and 20.3 ± 8.4%
SMILES: COc1cc(O)cc(O)c1C(=O)/C=C/c1ccc(F)cc1 [Compound 27]

AKR1C3 Inhibition at 10 µM [%] [2]: 70.8 ± 3.8%
SMILES: O=C(/C=C/c1ccc(Cl)cc1)c1c(O)cc(O)cc1O [Compound 22]

inhibition at 10 µM [2]: 31.1 ± 3.2%
SMILES: O=C(/C=C/c1ccc(O)cc1)c1ccc(O)cc1O [Isoliquiritigenin (16), isoliquiritigenin, reference compound]
IC50 [3]: 11 µM
IC50 [4]: 13 µM
17β-HSD inhibition [5]: 10%

AKR1C3 Inhibition at 10 µM [%] [2]: 68.5 ± 6.4%
SMILES: O=C(/C=C/c1ccc(F)cc1)c1c(O)cc(O)cc1O [Compound 26]
